Common to all, as to format: functional
The test system of one assay is Trichophyton rubrum. The assay is described as follows: Antifungal activity against Trichophyton rubrum isolate cmccftla by micro-broth dilution method.
Assay [1] relates to Candida albicans. The assay is described as follows: Antifungal activity against Candida albicans isolate Y0109 by micro-broth dilution method.
For a further assay, the system named is Cryptococcus neoformans. The assay can be described thus: Antifungal activity against Cryptococcus neoformans isolate 32605 by micro-broth dilution method. Background: Dilution methods test growth across graded concentrations, often in twofold steps.
Another assay relates to Nakaseomyces glabratus. The assay is described as follows: Antifungal activity against Candida glabrata isolate 537 by micro-broth dilution method.
In another assay the test system is Nannizzia gypsea. The assay can be described thus: Antifungal activity against Microsporum gypseum isolate cmccftla by micro-broth dilution method.
Assay [2] concerns Candida albicans. The assay is described as follows: Antifungal activity against Candida albicans isolate SC5314 by micro-broth dilution method.
The test system of another assay is Aspergillus fumigatus. The assay is described as follows: Antifungal activity against Aspergillus fumigatus isolate 7544 by micro-broth dilution method.
A further assay has as its system Candida parapsilosis. The assay can be described thus: Antifungal activity against Candida parapsilosis isolate 22019 by micro-broth dilution method. To be noted: Lodderomyces parapsilosis.

Converted amounts (≈) assume the structure as drawn.

By MIC80 is commonly meant an inhibitory concentration at the 80% level, which refers to growth in some studies and to a panel of isolates in others. High values mean lower susceptibility, low ones higher susceptibility.

In the case of `Cc1ccc(-c2cc([C@H](C)[C@](O)(Cn3cncn3)c3ccc(F)cc3F)on2)cc1`, the MIC80 in the assay with Trichophyton rubrum is 0.25 µg/mL (≈ 0.609 µM); against Candida albicans [1] it was 0.25 µg/mL (≈ 0.609 µM); in the assay with Cryptococcus neoformans, 0.125 µg/mL (≈ 0.305 µM); in the assay on Nakaseomyces glabratus, 0.25 µg/mL (≈ 0.609 µM); in the assay with Nannizzia gypsea it was 2 µg/mL (≈ 4.87 µM); in the assay with Candida albicans [2] it was 0.0625 µg/mL (≈ 0.152 µM). Besides, the values for the MIC80 in the assay with Aspergillus fumigatus and against Candida parapsilosis were 8 µg/mL (≈ 19.5 µM) and 0.125 µg/mL (≈ 0.305 µM), respectively.
As for `CC(=O)N1CCN(c2ccc(OCC3COC(Cn4ccnc4)(c4ccc(Cl)cc4Cl)O3)cc2)CC1` (configuration not stated) [KETOCONAZOLE], the MIC80 came to 1 µg/mL (≈ 1.88 µM) with Trichophyton rubrum; 0.25 µg/mL (≈ 0.47 µM) against Candida albicans [1]; 0.0625 µg/mL (≈ 0.118 µM) with Cryptococcus neoformans; 0.0625 µg/mL (≈ 0.118 µM) in the assay with Nakaseomyces glabratus; 1 µg/mL (≈ 1.88 µM) with Nannizzia gypsea; 0.125 µg/mL (≈ 0.235 µM) with Candida albicans [2]. For the same molecule, the figures for the MIC80 in the assay on Aspergillus fumigatus and in the assay with Candida parapsilosis were 4 µg/mL (≈ 7.53 µM) and 0.5 µg/mL (≈ 0.941 µM), respectively.
With `C[C@@H](c1cc(-c2ccc(Cl)cc2F)no1)[C@](O)(Cn1cncn1)c1ccc(F)cc1F`, the MIC80 against Trichophyton rubrum amounted to 0.25 µg/mL (≈ 0.557 µM); with Candida albicans [1], 0.125 µg/mL (≈ 0.279 µM); in the assay with Cryptococcus neoformans, 0.0313 µg/mL (≈ 0.0697 µM); against Nakaseomyces glabratus it was 0.0156 µg/mL (≈ 0.0348 µM); against Nannizzia gypsea it was 2 µg/mL (≈ 4.46 µM); against Candida albicans [2], 0.125 µg/mL (≈ 0.279 µM). Also, the results for the MIC80 in the assay with Aspergillus fumigatus and with Candida parapsilosis were 8 µg/mL (≈ 17.8 µM) and 0.125 µg/mL (≈ 0.279 µM), respectively.
`C[C@@H](c1cc(-c2cc(F)cc(F)c2)no1)[C@](O)(Cn1cncn1)c1ccc(F)cc1F`: the MIC80 against Trichophyton rubrum was 0.25 µg/mL (≈ 0.578 µM); against Candida albicans [1] it was 0.0625 µg/mL (≈ 0.145 µM); with Cryptococcus neoformans, 0.125 µg/mL (≈ 0.289 µM); in the assay with Nakaseomyces glabratus, 0.0625 µg/mL (≈ 0.145 µM); in the assay with Nannizzia gypsea, 2 µg/mL (≈ 4.63 µM); with Candida albicans [2], 0.125 µg/mL (≈ 0.289 µM). The MIC80 against Aspergillus fumigatus was determined as 4 µg/mL (≈ 9.25 µM); in the assay on Candida parapsilosis it was 0.25 µg/mL (≈ 0.578 µM).
`C[C@@H](c1cc(-c2c(F)cccc2F)no1)[C@](O)(Cn1cncn1)c1cc(F)ccc1F`: the MIC80 in the assay with Trichophyton rubrum is 4 µg/mL (≈ 9.25 µM); against Candida albicans [1], 1 µg/mL (≈ 2.31 µM); against Cryptococcus neoformans it was 0.0625 µg/mL (≈ 0.145 µM); against Nakaseomyces glabratus, 0.125 µg/mL (≈ 0.289 µM); in the assay on Nannizzia gypsea, more than 8 µg/mL; against Candida albicans [2] it was 0.5 µg/mL (≈ 1.16 µM). For the same molecule, the MIC80 against Aspergillus fumigatus was more than 8 µg/mL; against Candida parapsilosis, 1 µg/mL (≈ 2.31 µM).
`C[C@@H](c1cc(-c2c(F)ccc(F)c2F)no1)[C@](O)(Cn1cncn1)c1ccc(F)cc1F`: the MIC80 in the assay with Trichophyton rubrum amounted to 0.0625 µg/mL (≈ 0.139 µM); against Candida albicans [1], 0.125 µg/mL (≈ 0.278 µM); with Cryptococcus neoformans it was 0.0625 µg/mL (≈ 0.139 µM); in the assay on Nakaseomyces glabratus, 0.0625 µg/mL (≈ 0.139 µM); in the assay on Nannizzia gypsea, 0.5 µg/mL (≈ 1.11 µM); in the assay on Candida albicans [2] it was 0.25 µg/mL (≈ 0.555 µM). Also, the figures for the MIC80 in the assay on Aspergillus fumigatus and in the assay with Candida parapsilosis were 2 µg/mL (≈ 4.44 µM) and 0.125 µg/mL (≈ 0.278 µM), respectively.
As for `C[C@@H](c1cc(-c2ccc(Cl)c(F)c2)no1)[C@](O)(Cn1cncn1)c1ccc(F)cc1F`, the MIC80 in the assay on Trichophyton rubrum came to 0.5 µg/mL (≈ 1.11 µM); against Candida albicans [1], 0.0156 µg/mL (≈ 0.0348 µM); against Cryptococcus neoformans, 0.25 µg/mL (≈ 0.557 µM); in the assay on Nakaseomyces glabratus it was 0.25 µg/mL (≈ 0.557 µM); against Nannizzia gypsea it was 4 µg/mL (≈ 8.91 µM); with Candida albicans [2], 0.0313 µg/mL (≈ 0.0697 µM). Moreover, the MIC80 with Aspergillus fumigatus is more than 8 µg/mL; against Candida parapsilosis, 0.5 µg/mL (≈ 1.11 µM).
Take `C[C@@H](c1cc(-c2ccc(F)c(F)c2)no1)[C@](O)(Cn1cncn1)c1ccc(F)cc1F`: the MIC80 with Trichophyton rubrum amounted to 0.5 µg/mL (≈ 1.16 µM); against Candida albicans [1] it was 0.125 µg/mL (≈ 0.289 µM); against Cryptococcus neoformans, 0.125 µg/mL (≈ 0.289 µM); against Nakaseomyces glabratus, 0.0156 µg/mL (≈ 0.0361 µM); with Nannizzia gypsea it was 4 µg/mL (≈ 9.25 µM); in the assay with Candida albicans [2], 0.125 µg/mL (≈ 0.289 µM). The MIC80 in the assay on Aspergillus fumigatus came to 8 µg/mL (≈ 18.5 µM); in the assay with Candida parapsilosis, 0.125 µg/mL (≈ 0.289 µM).
For the molecule `C[C@@H](c1cc(-c2ccc(Cl)c(Cl)c2)no1)[C@](O)(Cn1cncn1)c1ccc(F)cc1F`, the MIC80 with Trichophyton rubrum was 0.5 µg/mL (≈ 1.07 µM); in the assay with Candida albicans [1], 0.0625 µg/mL (≈ 0.134 µM); in the assay with Cryptococcus neoformans, 0.25 µg/mL (≈ 0.537 µM); in the assay on Nakaseomyces glabratus, 0.25 µg/mL (≈ 0.537 µM); in the assay on Nannizzia gypsea, 4 µg/mL (≈ 8.6 µM); in the assay with Candida albicans [2], 0.25 µg/mL (≈ 0.537 µM). In addition, the MIC80 against Aspergillus fumigatus is more than 8 µg/mL; with Candida parapsilosis, 0.5 µg/mL (≈ 1.07 µM).
As for `C[C@@H](c1cc(-c2cccc(F)c2F)no1)[C@](O)(Cn1cncn1)c1cc(F)ccc1F`, the MIC80 is 8 µg/mL (≈ 18.5 µM) against Trichophyton rubrum; 0.5 µg/mL (≈ 1.16 µM) in the assay with Candida albicans [1]; 0.125 µg/mL (≈ 0.289 µM) in the assay on Cryptococcus neoformans; 0.125 µg/mL (≈ 0.289 µM) against Nakaseomyces glabratus; more than 8 µg/mL against Nannizzia gypsea; 0.5 µg/mL (≈ 1.16 µM) against Candida albicans [2]. Moreover, the MIC80 against Aspergillus fumigatus was more than 8 µg/mL; against Candida parapsilosis, 2 µg/mL (≈ 4.63 µM).
On to `C[C@@H](c1cc(-c2cccc(F)c2F)no1)[C@](O)(Cn1cncn1)c1ccc(F)cc1F`, for which the MIC80 stood at 0.125 µg/mL (≈ 0.289 µM) in the assay on Trichophyton rubrum; 0.0625 µg/mL (≈ 0.145 µM) in the assay on Candida albicans [1]; 0.125 µg/mL (≈ 0.289 µM) in the assay on Cryptococcus neoformans; 0.125 µg/mL (≈ 0.289 µM) in the assay with Nakaseomyces glabratus; 0.5 µg/mL (≈ 1.16 µM) in the assay on Nannizzia gypsea; 0.0625 µg/mL (≈ 0.145 µM) with Candida albicans [2]. The MIC80 against Aspergillus fumigatus was determined as 2 µg/mL (≈ 4.63 µM); with Candida parapsilosis, 0.25 µg/mL (≈ 0.578 µM).
For `OC(Cn1cncn1)(Cn1cncn1)c1ccc(F)cc1F` [FLUCONAZOLE], the MIC80 was determined as 8 µg/mL (≈ 26.1 µM) in the assay on Trichophyton rubrum; 0.25 µg/mL (≈ 0.816 µM) in the assay on Candida albicans [1]; 0.5 µg/mL (≈ 1.63 µM) against Cryptococcus neoformans; 2 µg/mL (≈ 6.53 µM) with Nakaseomyces glabratus; 32 µg/mL (≈ 104 µM) with Nannizzia gypsea; 0.5 µg/mL (≈ 1.63 µM) with Candida albicans [2]. The MIC80 with Aspergillus fumigatus is more than 64 µg/mL; against Candida parapsilosis, 2 µg/mL (≈ 6.53 µM).
For the molecule `C[C@@H](c1cc(-c2cc(F)ccc2F)no1)[C@](O)(Cn1cncn1)c1ccc(F)cc1F`, the MIC80 came out at 0.125 µg/mL (≈ 0.289 µM) in the assay on Trichophyton rubrum; 0.0625 µg/mL (≈ 0.145 µM) in the assay on Candida albicans [1]; 0.125 µg/mL (≈ 0.289 µM) against Cryptococcus neoformans; 0.0625 µg/mL (≈ 0.145 µM) with Nakaseomyces glabratus; 1 µg/mL (≈ 2.31 µM) in the assay on Nannizzia gypsea; 0.0625 µg/mL (≈ 0.145 µM) in the assay with Candida albicans [2]. Further, the MIC80 turned out to be 4 µg/mL (≈ 9.25 µM) in the assay on Aspergillus fumigatus and 0.125 µg/mL (≈ 0.289 µM) against Candida parapsilosis.
As to `C[C@@H](c1cc(-c2cc(F)ccc2F)no1)[C@](O)(Cn1cncn1)c1cc(F)ccc1F`, the MIC80 in the assay with Trichophyton rubrum is 8 µg/mL (≈ 18.5 µM); with Candida albicans [1], 0.5 µg/mL (≈ 1.16 µM); with Cryptococcus neoformans it was 0.125 µg/mL (≈ 0.289 µM); with Nakaseomyces glabratus it was 0.125 µg/mL (≈ 0.289 µM); in the assay on Nannizzia gypsea, more than 8 µg/mL; against Candida albicans [2], 1 µg/mL (≈ 2.31 µM). For the same molecule, the results for the MIC80 in the assay on Aspergillus fumigatus and against Candida parapsilosis were more than 8 µg/mL and 1 µg/mL (≈ 2.31 µM), respectively.

The record behind these values is ChEMBL document CHEMBL4038287, “Design, synthesis, and in vitro evaluation of novel antifungal triazoles” (2017).
